The test concerns the target T1, N-terminal His6-tagged recombinant full-length human Lck (Homo sapiens, UniProt P06239).
T1 construct: N-terminal His6-tagged recombinant full-length human Lck; His6 (N); purchased Millipore
Put plainly: Lck IMAP assay. The class given is biochemical. The settings on record: ATP 6 μM (KM,ATP), enzyme pre-incubated with compounds for 60 minutes, values given as bins. From the text:
Inhibition of kinase activity can be measured using the Immobilized Metal Assay for Phosphochemicals (IMAP) assay. IMAP is a homogeneous fluorescence polarization (FP) assay based on affinity capture of phosphorylated peptide substrates. IMAP uses fluorescein-labeled peptide substrates that, upon phosphorylation by a protein kinase, bind to so-called IMAP nanoparticles, which are derivatized with trivalent metal complexes. Binding causes a change in the rate of the molecular motion of the peptide, and results in an increase in the FP value observed for the fluorescein label attached to the substrate peptide (Gaudet et al. A homogeneous fluorescence polarization assay adaptable for a range of protein serine/threonine and tyrosine kinases. J. Biomol. Screen (2003) 8, 164-175).
Enzyme used was N-terminal His6-tagged recombinant full-length human Lck from Millipore. Phosphorylation substrate was a fluorescein-labeled peptide (5FAM-KVEKIGEGTYGVV—NH2) derived from p34cdc2 from Molecular Devices. Enzymes, substrate and ATP were diluted in Kinase Reaction buffer (10 mM Tris-HCl, 10 mM MgCl2, 0.01% Tween-20, 0.05% NaN3 pH 7.2, 1 mM DTT (dithiotreitol). The final volume at the kinase reaction step of the assay in the 384-well plate was 20 μl. Final amount of enzyme in the reaction was 0.1 U/ml. Enzyme was pre-incubated with compounds diluted in 1% DMSO (dimethylsulfoxide) for 60 minutes at room temperature in the dark. Subsequently, peptide substrate to a final concentration of 100 nM, and ATP to a final concentration of 6 μM were added and the mix was incubated for 120 minutes at room temperature in the dark. IMAP progressive binding buffer (75% 1× buffer A, 25% 1× buffer B with 1:600 Progressive Binding Reagent; Molecular Devices) was added, followed by an incubation step of 60 minutes at room temperature in the dark. Finally, the FP signal was read on an Envision Multilabel reader (Perkin Elmer).
All biochemical assays were run at KM,ATP of the enzyme using non-saturated conditions, meaning that during the incubation time it was assured that the signal increase was linear with time. For all biochemical assays a reference standard was used on each plate.
Ten point serial dilutions using a √10 dilution factor were used for dose response testing of compounds. Starting concentration was 10^-6M for Lck IMAP assays. Dose-response curves were run as two experiments on duplicate plates (N=1; n=2). All data was normalized to percentage effect based on maximum (Max) and minimum (Min) control values. On every 384 assay plate 16 wells were used as minimum wells (wells with ATP, 0% effect) and 16 wells were used as maximum wells (wells without ATP, 100% effect). 16 wells were used for measuring the background signal, obtained from a kinase reaction containing all constituents except the labeled peptide substrate. Percentage effect was plotted against log dilution concentration of compound to obtain sigmoid dose response curves. pIC50 values were calculated using ActivityBase.

Each structure is given as a SMILES string. pIC50: −log10 of the molar value.

T1 sequence (P06239 whole entry): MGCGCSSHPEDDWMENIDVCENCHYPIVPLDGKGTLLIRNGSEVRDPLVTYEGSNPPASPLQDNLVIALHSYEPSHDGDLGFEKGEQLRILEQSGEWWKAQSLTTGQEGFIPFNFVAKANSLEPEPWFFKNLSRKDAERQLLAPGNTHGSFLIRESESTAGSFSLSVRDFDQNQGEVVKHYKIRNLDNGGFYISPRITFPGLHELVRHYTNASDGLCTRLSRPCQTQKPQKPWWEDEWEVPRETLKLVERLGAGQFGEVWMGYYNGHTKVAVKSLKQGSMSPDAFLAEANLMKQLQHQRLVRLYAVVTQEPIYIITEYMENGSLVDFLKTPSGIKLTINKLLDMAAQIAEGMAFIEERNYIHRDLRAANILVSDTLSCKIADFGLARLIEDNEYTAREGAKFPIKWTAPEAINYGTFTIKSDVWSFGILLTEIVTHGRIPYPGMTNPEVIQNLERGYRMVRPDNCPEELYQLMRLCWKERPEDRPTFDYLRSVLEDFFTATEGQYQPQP

In the case of `COC(=O)N1CCC(c2nc(-c3ccc(NC(=O)c4cc5c(OC)cccc5n4C)c(OC)c3)c3c(C)nccn23)CC1` [Example 22, Methyl 4-(1-(3-methoxy-4-(4-methoxy-1-methyl-1H-indole-2-carboxamido)phenyl)-8-methylimidazo[1,5-a]pyrazin-3-yl)piperidine-1-carboxylate], the pIC50 is ≥ 8.00. To `COc1cc(-c2nc(N3CCN(C)CC3)n3ccnc(C)c23)ccc1NC(=O)c1cc2ccccc2n1C` [Example 23, N-(2-methoxy-4-(8-methyl-3-(4-methylpiperazin-1-yl)imidazo[1,5-a]pyrazin-1-yl)phenyl)-1-methyl-1H-indole-2-carboxamide] belongs ≥ 8.00.

Take `COc1cc(-c2nc(N3CCOCC3)n3ccnc(C)c23)ccc1NC(=O)c1cc2ccccc2n1C` [Example 24, N-(2-methoxy-4-(8-methyl-3-(morholin-4-yl)imidazo[1,5-a]pyrazin-1-yl)phenyl)-1-methyl-1H-indole-2-carboxamide]: the pIC50 is ≥ 8.00. `COc1cc(-c2nc(N3CCC(N4CCOCC4)CC3)n3ccnc(C)c23)ccc1NC(=O)OC(C)C` [Example 25, Isopropyl 2-methoxy-4-(8-methyl-3-(4-morpholinopiperidin-1-yl)imidazo[1,5-a]pyrazin-1-yl)phenylcarbamate]: the pIC50 is 7.00 to 8.00. For the compound `CCC[C@H](C)OC(=O)Nc1ccc(-c2nc([C@H]3CC[C@H](N(C)CCOC)CC3)n3ccnc(C)c23)cc1OC` [Example 26a, (S)-pentan-2-yl 2-methoxy-4-(3-((trans)-4-((2-methoxyethyl)(methyl)amino)cyclohexyl)-8-methylimidazo[1,5-a]pyrazin-1-yl)phenylcarbamate], the negative-log IC50 (pIC50) was ≥ 8.00.

Regarding `COc1cc(-c2nc([C@H]3CC[C@H](N(C)C)CC3)n3ccnc(C)c23)ccc1NC(=O)c1cc2c(OC)cccc2n1C` [Example 26b, N-(4-(3-((trans)-4-(dimethylamino)cyclohexyl)-8-methylimidazo[1,5-a]pyrazin-1-yl)-2-methoxyphenyl)-4-methoxy-1-methyl-1H-indole-2-carboxamide], the pIC50 was ≥ 8.00.

Take `COCCN(C)[C@H]1CC[C@@H](c2nc(-c3ccc(NC(=O)c4cc5c(OC)cccc5n4C)c(OC)c3)c3c(C)nccn32)CC1` [Example 26c, 4-methoxy-N-(2-methoxy-4-(3-((cis)-4-((2-methoxyethyl)(methyl)amino)cyclo-hexyl)-8-methylimidazo[1,5-a]pyrazin-1-yl)phenyl)-1-methyl-1H-indole-2-carboxamide]: the pIC50 was ≥ 8.00. The result for `COc1cc(-c2nc([C@H]3CC[C@@H](N4CCOCC4)CC3)n3ccnc(C)c23)ccc1NC(=O)c1cc2c(OC)cccc2n1C` [Example 26d, 4-methoxy-N-(2-methoxy-4-(8-methyl-3-((cis)-4-morpholinocyclohexyl)imidazo[1,5-a]pyrazin-1-yl)phenyl)-1-methyl-1H-indole-2-carboxamide] reads ≥ 8.00; that for `COc1cc(-c2nc([C@H]3CC[C@@H](N(C)C)CC3)n3ccnc(C)c23)ccc1NC(=O)c1cc2c(OC)cccc2n1C` [Example 26e, N-(4-(3-((cis)-4-(dimethylamino)cyclohexyl)-8-methylimidazo[1,5-a]pyrazin-1-yl)-2-methoxyphenyl)-4-methoxy-1-methyl-1H-indole-2-carboxamide], ≥ 8.00; that for `CCC[C@H](C)OC(=O)Nc1ccc(-c2nc([C@H]3CC[C@@H](N4CCN(C(C)=O)CC4)CC3)n3ccnc(C)c23)cc1OC` [Example 26f, (S)-pentan-2-yl 4-(3-((cis)-4-(4-acetylpiperazin-1-yl)cyclohexyl)-8-methylimidazo[1,5-a]pyrazin-1-yl)-2-methoxyphenylcarbamate], ≥ 8.00. `CCC[C@H](C)OC(=O)Nc1ccc(-c2nc([C@H]3CC[C@@H](N4CC(F)(F)C4)CC3)n3ccnc(C)c23)cc1OC` [Example 26g, (S)-pentan-2-yl 4-(3-((cis)-4-(3,3-difluoroazetidin-1-yl)cyclohexyl)-8-methylimidazo[1,5-a]pyrazin-1-yl)-2-methoxyphenylcarbamate]: the pIC50 is ≥ 8.00.

For `CCC[C@H](C)OC(=O)Nc1ccc(-c2nc([C@H]3C[C@H](N4CCN(C)CC4)C3)n3ccnc(C)c23)cc1OC` [Example 27, (S)-Pentan-2-yl 2-methoxy-4-(8-methyl-3-((1r,3r)-3-(4-methylpiperazin-1-yl)cyclobutyl)imidazo[1,5-a]pyrazin-1-yl)phenylcarbamate], the pIC50 was ≥ 8.00.

With `CCC[C@H](C)OC(=O)Nc1ccc(-c2nc([C@H]3CC[C@H](N(CCOC)C(C)=O)CC3)n3ccnc(C)c23)cc1OC` [Example 29, (S)-Pentan-2-yl 2-methoxy-4-(3-((trans)-4-(N-(2-methoxyethyl)acetamido)cyclohexyl)-8-methylimidazo[1,5-a]pyrazin-1-yl)phenylcarbamate], the negative-log IC50 (pIC50) was ≥ 8.00. With `COc1cc(-c2nc(C3CCN(C4CCOCC4)CC3)n3ccnc(C)c23)ccc1NC(=O)c1cc2c(OC)cccc2n1C` [Example 30, 4-Methoxy-N-(2-methoxy-4-(8-methyl-3-(1-(tetrahydro-2H-pyran-4-yl)piperidin-4-yl)imidazo[1,5-a]pyrazin-1-yl)phenyl)-1-methyl-1H-indole-2-carboxamide], the pIC50 is ≥ 8.00.

On to `CCC[C@H](C)OC(=O)Nc1ccc(-c2nc(N3CCN(C(C)=O)CC3)n3ccnc(C)c23)cc1OC` [Example 31, (S)-Pentan-2-yl 4-(3-(4-acetylpiperazin-1-yl)-8-methylimidazo[1,5-a]pyrazin-1-yl)-2-methoxyphenylcarbamate], for which the pIC50 is ≥ 8.00. The result for `COc1cc(-c2nc(N3CCN(C4CCN(C(C)=O)CC4)CC3)n3ccnc(C)c23)ccc1NC(=O)c1cc2c(OC)cccc2n1C` [Example 32, N-(4-(3-(4-(1-Acetylpiperidin-4-yl)piperazin-1-yl)-8-methylimidazo[1,5-a]pyrazin-1-yl)-2-methoxyphenyl)-4-methoxy-1-methyl-1H-indole-2-carboxamide] reads ≥ 8.00. To `CCC[C@H](C)OC(=O)Nc1ccc(-c2nc([C@H]3CC[C@H](N4CCN(C)CC4)CC3)n3ccnc(C)c23)cc1OC` [Example 33a, (S)-pentan-2-yl 2-methoxy-4-(8-methyl-3-((trans)-4-(4-methylpiperazin-1-yl)cyclohexyl)imidazo[1,5-a]pyrazin-1-yl)phenylcarbamate] belongs ≥ 8.00; to `COc1cc(-c2nc([C@H]3CC[C@H](N4CCN(C)CC4)CC3)n3ccnc(C)c23)ccc1NC(=O)c1cc2ccccc2n1C` [Example 33b, N-(2-methoxy-4-(8-methyl-3-((trans)-4-(4-methylpiperazin-1-yl)cyclohexyl)imidazo[1,5-a]pyrazin-1-yl)phenyl)-1-methyl-1H-indole-2-carboxamide 2,2,2-trifluoroacetate], ≥ 8.00. The result for `COc1cc(-c2nc([C@H]3CC[C@H](N4CCN(C(C)=O)CC4)CC3)n3ccnc(C)c23)ccc1NC(=O)c1cc2ccccc2n1C` [Example 33c, N-(4-(3-((trans)-4-(4-acetylpiperazin-1-yl)cyclohexyl)-8-methylimidazo[1,5-a]pyrazin-1-yl)-2-methoxyphenyl)-1-methyl-1H-indole-2-carboxamide] reads ≥ 8.00. Take `CCC[C@H](C)OC(=O)Nc1ccc(-c2nc([C@H]3CC[C@H](N4CCN(C(C)=O)CC4)CC3)n3ccnc(C)c23)cc1OC` [Example 33d, (S)-pentan-2-yl 4-(3-((trans)-4-(4-acetylpiperazin-1-yl)cyclohexyl)-8-methylimidazo[1,5-a]pyrazin-1-yl)-2-methoxyphenylcarbamate]: the pIC50 was ≥ 8.00. To `COc1cc(-c2nc([C@@H]3CCN(C(=O)CN(C)C)C3)n3ccnc(C)c23)ccc1NC(=O)c1cc2c(OC)cccc2n1C` [Example 33e, (R)—N-(4-(3-(1-(2-(dimethylamino)acetyl)pyrrolidin-3-yl)-8-methylimidazo[1,5-a]pyrazin-1-yl)-2-methoxyphenyl)-4-methoxy-1-methyl-1H-indole-2-carboxamide] belongs ≥ 8.00; to `CCC[C@H](C)OC(=O)Nc1ccc(-c2nc([C@H]3CC[C@@H](N4CCN(C)CC4)CC3)n3ccnc(C)c23)cc1OC` [Example 33f, (S)-pentan-2-yl 2-methoxy-4-(8-methyl-3-((cis)-4-(4-methylpiperazin-1-yl)cyclohexyl)imidazo[1,5-a]pyrazin-1-yl)phenylcarbamate], ≥ 8.00.
